Reference: patent publication US4338320A, “Esters of 6'-hydroxycinchonine, and a method of treating arrythmia with them” (The Board of Regents of the University of Nebraska, priority 1978, dated 1982)
Entries after “also recorded” stand apart in the source; their conditions may differ. Where two headings read alike, the source gives them in different places.

Experiments:
Assay type in all cases: in vivo
mice [1] = experiment: Antiarrhythmic effective dose in mice (dose probit curve); settings: for ED50: Mus musculus
Procedure: (§1) Mice were treated at varying dosage levels for both quinidine and cupreidine. A dose probit curve was generated for the effective dose and lethal dose of each compound. The respective ED50 and LD50 values were derived from those curves using techniques well known to those skilled in the art.

[2] = Lethal dose in mice (dose probit curve); settings: mouse, in vivo; mice; from dose probit curve
Procedure: as §1

mice [3] = experiment: Aconitine-induced arrhythmia in mice
Text: Aconitine was used to induce arrhythmia and a saline solution served as the control for a third group.
A dosage in the same range as that previously set forth for cupreidine was utilized with mice for the compounds 6-benzylcinchonine and 6'-allylcinchonine. Aconitine was used to induce arrhythmia and a saline solution was used with the control group.

mice [4] = experiment: Lethal dose in mice (dose probit curve); settings: result in words
Procedure: as §1

[5] = Table II, intraperitoneal, cupreidine about 20.6 to about 26.8 mg/kg, quinidine 19.5-25.8 mg/kg, saline control 193. ± 11
[6] = Table III, dosage in the same range as for cupreidine, saline control 160. ± 5
[7] = Table III, dosage in the same range as for cupreidine, saline control 186. ± 6

SMILES	ED50 (mice [1]; mice, from dose probit curve, read-out: ED50) [mg/kg]	LD50 [2] [mg/kg]	Onset of Ventricular Tachycardia (time in seconds) (mice [3]; [5]) [seconds]	Onset of Arrhythmia (time in seconds) (mice [3]; [6]) [seconds]	Onset of Ventricular Tachycardia (time in seconds) (mice [3]; [7]) [seconds]	ED50 (mice [1]) [mg/kg]	effectiveness as an antiarrhythmic agent, relative to quinidine (mice [1]; result in words)	toxicity relative to quinidine (mice [4])	Onset of Arrhythmia (time in seconds) (mice [3]; Table II, intraperitoneal, cupreidine about 20.6 to about 26.8 mg/kg, quinidine 19.5-25.8 mg/kg, saline control 153. ± 5) [seconds]
C=C[C@H]1C[N@@]2CC[C@H]1C[C@@H]2[C@@H](O)c1ccnc2ccc(OC)cc12 [Quinidine, reference compound]	22.4	202	294. ± 44	–	–	–	–	–	–
C=C[C@H]1CN2CC[C@H]1C[C@@H]2[C@@H](O)c1ccnc2ccc(OCc3ccccc3)cc12 [6-Benzylcinchonine, 6'-Benzyloxycinchonine]	–	–	–	195. ± 8	217. ± 6	–	–	–	–
C=CC1CN2CCC1CC2C(O)c1ccnc2ccc(O)cc12 (stereo not shown) [Cupreidine, 6'-hydroxycinchonine]	–	304	250. ± 22	–	–	23.5	equal or superior to quinidine; also recorded: comparable to that of quinidine	greatly reduced toxicity	198. ± 8
C=CCOc1ccc2nccc([C@H](O)[C@H]3C[C@@H]4CCN3C[C@@H]4C=C)c2c1 [6'-Allylcinchonine, 6'-Allyloxycinchonine]	–	–	–	215. ± 9	261. ± 11	–	–	–	–
